The text below walks through data of BindingDB's records for doi:10.1016/s0960-894x(99)00680-0 (Univ. De Valencia, 2000).

By IC50 is commonly meant the concentration needed to halve the response being measured.

A short description of assay [1]: Inhibition of secretory PLA2 activity in bee venom enzyme using [3H]oleate labelled membranes at a concentration of 10 uM.
Assay [2] concerns the target Phospholipase A2, major isoenzyme, pancreatic (Sus scrofa) (UniProt P00592). The experiment in a line: Inhibition of secretory PLA2 activity in porcine pancreas using [3H]-oleate labelled membranes at a concentration of 10 uM.
Assay [3] in a line: Inhibition of secretory PLA2 activity in Naja naja venom enzyme using [3H]oleate labelled membranes at a concentration of 10 uM.

The structures appear in SMILES notation.

Sequence of Phospholipase A2, major isoenzyme, pancreatic (Sus scrofa) (P00592 whole entry, looked up): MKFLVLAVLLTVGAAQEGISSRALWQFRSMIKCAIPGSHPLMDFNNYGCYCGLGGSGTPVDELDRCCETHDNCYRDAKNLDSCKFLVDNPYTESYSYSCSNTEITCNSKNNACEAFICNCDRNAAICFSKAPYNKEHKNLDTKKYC

For the molecule `CCCCCCCCCCCCCCC(CO)NCC` (stereo not given) [2-Ethylamino-hexadecan-1-ol], the IC50 in assay [1] was 6.1 µM; in assay [2], 1.4 µM.

As to `CCCCCCCCCCCCCCC(N)CN(CC)CC` (stereo not given) [N*1*,N*1*-Diethyl-hexadecane-1,2-diamine], the results for the IC50 in assay [1], in assay [2] and in assay [3] were 11 µM, 3.6 µM and 9.5 µM, respectively.
